Patent publication US5086049A, “7[4-(5 methyl-2-oxo-1,3-dioxalen-4-yl)methyl 1-piperzinyl]-4-oxo-4H-[1,3]thiazeto[3,2-a]quinoline-3-carboxylic acids” (Nipponshinyaku Co., Ltd., priority 1987, dated 1992)
Converted amounts (≈) assume the structure as drawn. Read-outs that look alike come from different tables or passages of the source.

Key:
[1] = test system: Staphylococcus aureus 209-P JC-1; assay: MIC by agar plate dilution method; type: cell-based; conditions: 10^6 CFU/ml, 37° C., 18 hours
Method: (§1) Test Method: In accordance with a standard method by Japan Chemotherapeutic Society [Chemotherapy, 29(1), pages 76-79, 1981], agar plate dilution method was used and the MIC was measured. Thus, bouillon for measuring sensitivity was used and the bacterial liquid cultured at 37° C. for 18 hours was diluted to an extent of 10^6 CFU/ml using said medium. This was inoculated to an agar medium containing drug for measuring sensitivity using a microplanter, cultured at 37° C. for 18 hours, and MIC was measured. Ofloxacin was used for comparison/control.
(§2) The compound of Example 2 was used as representative of the compounds of the present invention and ofloxacin was used as the Comparison/Control.

[2] = test system: Streptococcus pyogenes S-23; assay: MIC by agar plate dilution method; type: cell-based; conditions: S23, 10^6 CFU/ml, 37° C., 18 hours
Method: as §1, §2

[3] = test system: Pseudomonas aeruginosa IFO 3445; assay: MIC by agar plate dilution method; type: cell-based; conditions: IFO3445, 10^6 CFU/ml, 37° C., 18 hours
Method: as §1, §2

[4] = test system: Streptococcus pneumoniae Type I; assay: MIC by agar plate dilution method; type: cell-based; conditions: 10^6 CFU/ml, 37° C., 18 hours
Method: as §1, §2

[5] = test system: Serratia marcescens IFO 3736; assay: MIC by agar plate dilution method; type: cell-based; conditions: IFO3736, 10^6 CFU/ml, 37° C., 18 hours
Method: as §1, §2

[6] = test system: Proteus mirabilis IFO 3849; assay: MIC by agar plate dilution method; type: cell-based; conditions: IFO3849, 10^6 CFU/ml, 37° C., 18 hours
Method: as §1, §2

[7] = test system: Escherichia coli N1JH JC-2; assay: MIC by agar plate dilution method; type: cell-based
Method: as §1, §2

[8] = test system: Klebsiella pneumoniae NCTC 9632; assay: MIC by agar plate dilution method; type: cell-based
Method: as §1, §2

[9] = test system: Bacillus subtilis ATCC 6633; assay: MIC by agar plate dilution method; type: cell-based; conditions: ATCC6633, 10^6 CFU/ml, 37° C., 18 hours
Method: as §1, §2

[10] = test system: Shigella flexneri 2a EW-10; assay: MIC by agar plate dilution method; type: cell-based; conditions: 2AEW10, 10^6 CFU/ml, 37° C., 18 hours
Method: as §1, §2

[11] = test system: P. aeruginosa E-2; assay: Therapeutic effect on infection in mice, P. aeruginosa; type: in vivo, ddY strain male mice; conditions: P. aeruginosa E-2, 7.5×10^4 CFU/mouse i.p.; drug orally once 2 hours after inoculation; survival after one week, Probit method
Method: (§3) Test method: E. coli KC-14 and P. aeruginosa E-2 were suspended in 5% mucin and 0.5 ml of the suspension was injected intraperitoneally to ddY strain male mice (body weight: ca. 20 g; four weeks age; 10 mice per group). The amount of the bacteria inoculated was 5.1×10^4 CFU/mouse for E. coli and 7.5×10^4 CFU/mouse for P. aeruginosa. The drug was given orally once after 2 hours of inoculation and, out of the survival rate after one week, an ED50 was calculated by a Probit method. Ofloxacin was used as the comparison/control.

[12] = test system: E. coli KC-14; assay: Therapeutic effect on infection in mice, E. coli; type: in vivo, ddY strain male mice; conditions: E. coli KC-14, 5.1×10^4 CFU/mouse i.p.; drug orally once 2 hours after inoculation; survival after one week, Probit method
Method: as §3

Compound `CC1COc2c(N3CCN(C)CC3)c(F)cc3c(=O)c(C(=O)O)cn1c23` (racemic) [Ofloxacin, reference compound] has an MIC [1] of 0.39 µg/mL (≈ 1.08 µM), an MIC [2] of 1.56 µg/mL (≈ 4.32 µM) and an MIC [3] of 1.56 µg/mL (≈ 4.32 µM). The MIC [4] was 1.56 µg/mL (≈ 4.32 µM), the MIC [5] was 0.78 µg/mL (≈ 2.16 µM) and the MIC [6] was 0.39 µg/mL (≈ 1.08 µM). The MIC ([7]; N1JHJC2, Escherichia coli N1JH JC-2, 10^6 CFU/ml, 37° C., 18 hours, read-out: MIC) was 0.1 µg/mL (≈ 0.277 µM), the MIC ([8]; NCTC9632, Klebsiella pneumoniae NCTC 9632, 10^6 CFU/ml, 37° C., 18 hours, read-out: MIC) was 0.05 µg/mL (≈ 0.138 µM) and the MIC [9] was 0.1 µg/mL (≈ 0.277 µM). The MIC [10] was 0.025 µg/mL (≈ 0.0692 µM), the ED50 [11] was 0.692 mg/mouse and the ED50 [12] was 0.011 mg/mouse.
In the case of `COc1c(N2CCN(Cc3oc(=O)oc3C)CC2)c(F)cc2c(=O)c(C(=O)O)c3n(c12)C(C)S3` (stereo not drawn) [Example 14, 6-Fluoro-8-methoxy-1-methyl-7-[4-(5-methyl-2-oxo-1,3-dioxolen-4-yl)methyl-1-piperazinyl]-4-oxo-4H-[1,3]-thiazeto[3,2-a]quinoline-3-carboxylic acid], the ED50 [11] is reported as 0.427 mg/mouse and the ED50 [12] is reported as 0.0152 mg/mouse.
In the case of `CS(=O)(=O)O.Cc1oc(=O)oc1CN1CCN(c2cc3c(cc2F)c(=O)c(C(=O)O)c2n3C(C)S2)CC1` (stereo not drawn) [Example 4, 6-Fluoro-1-methyl-7-[4-(5-methyl-2-oxo-1,3-dioxolen-4-yl)methyl-1-piperazinyl]-4-oxo-4H-[1,3]thiazeto[3,2-a]quinoline-3-carboxylic acid methanesulfonate], the ED50 [11] is reported as 0.125 mg/mouse and the ED50 [12] is reported as 0.0078 mg/mouse.
Work on `Cc1oc(=O)oc1CN1CCN(c2cc3c(cc2F)c(=O)c(C(=O)O)c2n3C(C)S2)CC1` (stereo not drawn) [Example 2] yielded an MIC [1] of 0.1 µg/mL (≈ 0.217 µM), an MIC [2] of 0.39 µg/mL (≈ 0.845 µM) and an MIC [3] of 0.2 µg/mL (≈ 0.433 µM). For the same compound, the MIC [4] was 0.39 µg/mL (≈ 0.845 µM), the MIC [5] was 0.2 µg/mL (≈ 0.433 µM) and the MIC [6] was 0.025 µg/mL (≈ 0.0542 µM). The MIC ([7]; Escherichia coli, N1JHJC2, 18 h) was 0.0125 µg/mL (≈ 0.0271 µM), the MIC ([8]; Klebsiella pneumoniae, NCTC9632, 18 h) was 0.0125 µg/mL (≈ 0.0271 µM) and the MIC [9] was 0.05 µg/mL (≈ 0.108 µM). For the same compound, the MIC [10] was 0.0125 µg/mL (≈ 0.0271 µM), the ED50 [11] was 0.154 mg/mouse and the ED50 [12] was 0.0078 mg/mouse.
For `Cc1oc(=O)oc1CN1CCN(c2c(F)cc3c(=O)c(C(=O)O)c4n(c3c2F)C(C)S4)CC1` (stereo not drawn) [Example 8, 6,8-Difluoro-1-methyl-7-[4-(5-methyl-2-oxo-1,3-dioxolen-4-yl)methyl-1-piperazinyl]-4-oxo-4-[1,3]-thiazeto[3,2-a]quinoline-3-carboxylic acid], the ED50 [11] was 0.125 mg/mouse and the ED50 [12] was 0.0078 mg/mouse.
In the case of `CCOC(=O)c1c2n(c3cc(N4CCN(Cc5oc(=O)oc5C)CC4)c(F)cc3c1=O)C(C)S2` (stereo not drawn) [Example 1, Ethyl 6-fluoro-1-methyl-7-[4-(5-methyl-2-oxo-1,3-dioxolen-4yl)methyl-1-piperazinyl]-4oxo-4H-[1,3-]thiazeto[3,2-a]quinoline-3-carboxylate], the ED50 [11] is reported as 0.354 mg/mouse.
In the case of `Cc1oc(=O)oc1CN1CCN(c2cc3c(cc2F)c(=O)c(C(=O)O)c2n3C(C)S2)CC1.Cl` (stereo not drawn) [Example 3, 6-Fluoro-1-methyl-7-[4-(5-methyl-2-oxo-1,3-dioxolen-4-yl)methyl-1-piperazinyl]-4-oxo-4H-[1,3]thiazeto[3,2-a]quinoline-3-carboxylic acid hydrochloride], the ED50 [11] is reported as 0.125 mg/mouse and the ED50 [12] is reported as 0.0078 mg/mouse.
